pIC50: −log10 of the molar value.
Legend:
CYP2C9 = target: T1, CYP2C9 (Homo sapiens, UniProt P11712); assay: CYP450 inhibition in HLM, diclofenac probe; assay type: in vitro ADME; conditions: read-out: IC50 CYP450 2C9
T1 construct: pooled human liver microsomes; tissue BioIVT; host or cells: pooled human liver microsomes
Method: The CYP450 inhibition was determined by measuring the reaction products of known CYP450 substrates (probes). Probe solutions were prepared by diluting stock solutions with buffer (100 mM Tris-HCl, pH 7.5, and 0.5 mM EDTA) to the final indicated concentrations (Figure 5), and adding 180 µL of pooled human liver microsomes (20 mg/mL) (BioIVT, West Sussex, UK). These probe solutions were dispensed (195 µL) into clear 96-well plates with low evaporation lids (Corning, Turin, Italy) and the plates were prewarmed to 37 °C in a thermomixer (Hamilton, Agrate Brianza, Italy). Next, 5 µL of the test compound or appropriate positive control (Table S4) were added to the wells and the plates were incubated for a further 5 min. Following this, the reactions were started by adding NADPH regenerating solution (50 µL, see previous Section 4.7) to each well. CYP450 mixtures containing phenacetin, rosiglitazone, mephenytoin, atorvastatin, and nifedipine probes were incubated for 10 min at 37 °C, whereas those with midazolam and diclofenac were incubated for 5 min at 37 °C. Aliquots (100 µL) from each reaction mixture were quenched in 200 µL acetonitrile, and the mixtures were sedimented at 3000 ×g for 10 min at 4 °C. The supernatants were diluted in water containing 5 ng/mL Rolipram as an internal standard for LC-MS/MS analysis. All incubations were carried out in triplicate.
Probe products were analyzed on an API4000 Qtrap mass spectrometer (Applied Biosystems/MDS SCIEX, Monza, Italy) coupled with an Acquity UPLC system (Waters, Milan, Italy) and a CTC-PAL auto-injector (CTC Analytics AG, Zwingen, Switzerland). […] The column temperature was maintained at 60 °C. The injected sample volume was 10 µL, and analytes were eluted at a flow rate of 800 µL/min in a gradient of eluent A (water with 0.1% formic acid) and eluent B (acetonitrile with 0.1% formic acid). […] The analytes were quantified in multiple reaction-monitoring mode. Data were processed, and the percentage control activity was calculated based on a comparison between the ratio of the sample peak area and the peak area.

CYP2D6 = target: T2, CYP2D6 (Homo sapiens, UniProt P10635); assay: CYP450 inhibition in HLM, bufuralol probe; assay type: in vitro ADME; conditions: read-out: IC50 CYP450 2D6
T2 construct: pooled human liver microsomes; tissue BioIVT; host or cells: pooled human liver microsomes

[1] = target: T3, ICLPa (isocitrate lyase from P. aeruginosa) (Pseudomonas aeruginosa, UniProt Q9I0K4); assay: Inhibition of purified ICLPa enzymatic activity; assay type: biochemical; conditions: for inhibition at 75 µM: 75 µM compound, read-out: Enzyme Inhibition (%) at 75 µM ICLPa; for pIC50: purified enzyme, 170 nM ICL
T3 construct: made in house
T3 sequence (Q9I0K4 1-531): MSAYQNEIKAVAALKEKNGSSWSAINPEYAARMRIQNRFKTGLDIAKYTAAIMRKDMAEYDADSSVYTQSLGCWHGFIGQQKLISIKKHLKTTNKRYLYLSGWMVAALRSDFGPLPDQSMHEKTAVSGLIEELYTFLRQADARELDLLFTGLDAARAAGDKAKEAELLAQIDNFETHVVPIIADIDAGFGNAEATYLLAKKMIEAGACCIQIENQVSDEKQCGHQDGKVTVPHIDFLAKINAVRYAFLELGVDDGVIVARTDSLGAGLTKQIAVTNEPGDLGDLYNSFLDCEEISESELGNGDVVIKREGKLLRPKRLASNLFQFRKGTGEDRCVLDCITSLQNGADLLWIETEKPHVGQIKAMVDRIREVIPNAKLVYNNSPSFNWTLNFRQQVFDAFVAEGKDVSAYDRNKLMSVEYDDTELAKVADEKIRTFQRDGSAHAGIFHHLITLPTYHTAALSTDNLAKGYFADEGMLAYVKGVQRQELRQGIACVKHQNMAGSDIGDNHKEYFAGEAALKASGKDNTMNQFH
Method: The enzymatic activity of purified ICLPa and MSPa was assayed essentially as previously described. Compounds were added to the reaction mixtures (minus substrates) and incubated for 5 min at 37 °C. The enzyme concentration in the reaction mixtures was 170 nM for ICL and 25 nM for MS (based on the concentration of the monomer in each case). […] The reactions were initiated by the addition of pH-adjusted substrates, and the initial rates were recorded as A324 nm (for ICLPa) and A412 nm (for MSPa) using a Biospectrometer (Eppendorf, Stevenage, UK). Substrate turnover was calculated from the molar extinction coefficient of the assay products: Glyoxylate-phenylhydrazone (16,800/M/cm) for ICLPa and 2-nitro-5-thiobenzoic acid (14,150/M/cm) for MSPa.
All data fitting was performed with GraphPad Prism version 7.04 (GraphPad Software, Inc., La Jolla, CA, USA). The solid lines are the result of fitting the data to the equations denoted in relevant experimental sections. IC50 values were determined by a nonlinear fit using the equation for sigmoidal dose-response with variable slope. In all graphs, unless otherwise stated, the data points are the mean of experimental triplicates, and all error bars correspond to ± standard deviation.

T1 sequence (P11712 whole entry): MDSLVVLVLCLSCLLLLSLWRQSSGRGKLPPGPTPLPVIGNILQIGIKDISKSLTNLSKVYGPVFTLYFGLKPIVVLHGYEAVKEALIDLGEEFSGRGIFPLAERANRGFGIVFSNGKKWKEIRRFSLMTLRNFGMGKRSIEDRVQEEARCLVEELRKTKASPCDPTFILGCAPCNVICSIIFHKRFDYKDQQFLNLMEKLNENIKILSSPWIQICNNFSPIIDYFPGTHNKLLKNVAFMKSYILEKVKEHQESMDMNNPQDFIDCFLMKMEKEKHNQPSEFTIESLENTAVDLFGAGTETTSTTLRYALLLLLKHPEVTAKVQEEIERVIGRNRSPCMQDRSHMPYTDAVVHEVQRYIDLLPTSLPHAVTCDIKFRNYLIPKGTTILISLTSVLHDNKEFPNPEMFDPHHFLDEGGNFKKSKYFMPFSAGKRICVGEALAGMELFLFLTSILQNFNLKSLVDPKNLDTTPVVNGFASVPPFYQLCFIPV
T2 sequence (P10635 whole entry): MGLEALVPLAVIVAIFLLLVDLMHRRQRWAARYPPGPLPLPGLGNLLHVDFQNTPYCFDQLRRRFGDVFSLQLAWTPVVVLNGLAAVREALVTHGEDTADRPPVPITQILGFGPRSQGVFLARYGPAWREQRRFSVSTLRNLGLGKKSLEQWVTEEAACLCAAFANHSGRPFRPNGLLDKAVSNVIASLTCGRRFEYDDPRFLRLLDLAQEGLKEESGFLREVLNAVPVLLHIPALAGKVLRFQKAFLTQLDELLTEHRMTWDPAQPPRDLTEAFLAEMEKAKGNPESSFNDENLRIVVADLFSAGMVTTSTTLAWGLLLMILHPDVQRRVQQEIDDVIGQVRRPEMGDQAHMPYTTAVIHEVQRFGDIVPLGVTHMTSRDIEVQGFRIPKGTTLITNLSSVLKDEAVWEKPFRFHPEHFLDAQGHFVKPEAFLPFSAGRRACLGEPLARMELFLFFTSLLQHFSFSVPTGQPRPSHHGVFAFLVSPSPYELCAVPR

| Compound | pIC50 (CYP2C9) | pIC50 (CYP2D6) | inhibition at 75 µM [1] [%] | pIC50 [1] |
| --- | --- | --- | --- | --- |
| Nc1cc(Cl)ccn1 [Compound 2-AP, 2-amino-4-chloropyridine, reference compound] | < 4.00 | < 4.00 | 21 | < 4.12 |
| CC(C)(C)OC(=O)/N=C(\NC(=O)OC(C)(C)C)Nc1cc(Cl)ccn1 [SB002] | < 4.00 | < 4.00 | 100 | 4.88 |
| CC(C)(C)OC(=O)/N=C(\NC(=O)OC(C)(C)C)Nc1cc(C#N)ccn1 [SB023] | < 4.00 | < 4.00 | 34.7 | 4.03 |
